Experimental data taken from the supplement of paper PMC11451515.

System: SEM cells
Experiment: cell viability relative to DMSO control; higher = less cytotoxic
Details: 48 h
Method in brief: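 NOMO1, SEM and P12-Ichikawa leukemia cells spent at least four passages adapting to each medium before use. They were seeded at 500 cells/well (NOMO1, SEM) or 1000 cells/well (P12-Ichikawa) in 5 μl in 1536-well plates and pin-dosed with library compounds in DMSO at 11 threefold steps from 47 μM down to 0.79 nM. After 48 h at 37°C, CellTiter-Glo One luminescence was read. Viability is reported as a percentage of the DMSO wells on each plate, with cell-free wells as background.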

[1] = HPLM + 10% dialyzed FBS, 0.000781 µM
[2] = HPLM + 10% dialyzed FBS, 0.00234 µM
[3] = HPLM + 10% dialyzed FBS, 0.00702 µM
[4] = HPLM + 10% dialyzed FBS, 0.0211 µM
[5] = HPLM + 10% dialyzed FBS, 0.0632 µM
[6] = HPLM + 10% dialyzed FBS, 0.19 µM
[7] = HPLM + 10% dialyzed FBS, 0.569 µM
[8] = HPLM + 10% dialyzed FBS, 1.71 µM
[9] = HPLM + 10% dialyzed FBS, 5.12 µM
[10] = HPLM + 10% dialyzed FBS, 15.4 µM
[11] = HPLM + 10% dialyzed FBS, 46.1 µM
[12] = RPMI 5 mM glucose + 10% FBS, 0.000781 µM
[13] = RPMI 5 mM glucose + 10% FBS, 0.00234 µM
[14] = RPMI 5 mM glucose + 10% FBS, 0.00702 µM
[15] = RPMI 5 mM glucose + 10% FBS, 0.0211 µM
[16] = RPMI 5 mM glucose + 10% FBS, 0.0632 µM
[17] = RPMI 5 mM glucose + 10% FBS, 0.19 µM
[18] = RPMI 5 mM glucose + 10% FBS, 0.569 µM
[19] = RPMI 5 mM glucose + 10% FBS, 1.71 µM
[20] = RPMI 5 mM glucose + 10% FBS, 5.12 µM
[21] = RPMI 5 mM glucose + 10% FBS, 15.4 µM
[22] = RPMI 5 mM glucose + 10% FBS, 46.1 µM
[23] = RPMI 5 mM glucose + 10% dialyzed FBS, 0.000781 µM
[24] = RPMI 5 mM glucose + 10% dialyzed FBS, 0.00234 µM
[25] = RPMI 5 mM glucose + 10% dialyzed FBS, 0.00702 µM
[26] = RPMI 5 mM glucose + 10% dialyzed FBS, 0.0211 µM
[27] = RPMI 5 mM glucose + 10% dialyzed FBS, 0.0632 µM
[28] = RPMI 5 mM glucose + 10% dialyzed FBS, 0.19 µM
[29] = RPMI 5 mM glucose + 10% dialyzed FBS, 0.569 µM
[30] = RPMI 5 mM glucose + 10% dialyzed FBS, 1.71 µM
[31] = RPMI 5 mM glucose + 10% dialyzed FBS, 5.12 µM
[32] = RPMI 5 mM glucose + 10% dialyzed FBS, 15.4 µM
[33] = RPMI 5 mM glucose + 10% dialyzed FBS, 46.1 µM

SMILES	cell viability [1]	cell viability [2]	cell viability [3]	cell viability [4]	cell viability [5]	cell viability [6]	cell viability [7]	cell viability [8]	cell viability [9]	cell viability [10]	cell viability [11]	cell viability [12]	cell viability [13]	cell viability [14]	cell viability [15]	cell viability [16]	cell viability [17]	cell viability [18]	cell viability [19]	cell viability [20]	cell viability [21]	cell viability [22]	cell viability [23]	cell viability [24]	cell viability [25]	cell viability [26]	cell viability [27]	cell viability [28]	cell viability [29]	cell viability [30]	cell viability [31]	cell viability [32]	cell viability [33]
OC1=C(Cl)C=C(N\C2=C(\C(=O)NC2=O)C3=C(C=CC=C3)[N+]([O-])=O)C=C1	78.4%	92.9%	105%	96.9%	93%	102%	98%	115%	86.9%	56.3%	6%	103%	109%	106%	123%	109%	120%	104%	104%	93.6%	60.8%	25.2%	94.7%	99.1%	98.2%	99.4%	113%	98.9%	116%	110%	88.2%	62.8%	27.2%
Cc1n[nH]c2ccc(-c3cncc(OC[C@@H](N)Cc4ccccc4)c3)cc12	117%	124%	117%	108%	123%	98.2%	71.6%	56.3%	14.5%	5.34%	4.07%	105%	105%	116%	110%	102%	98%	92.7%	64%	7.19%	4.27%	3.39%											
NC(=O)c1nnn(Cc2cc(Cl)c(C(=O)c3ccc(Cl)cc3)c(Cl)c2)c1N	112%	116%	125%	107%	127%	128%	135%	116%	111%	124%	89.4%	115%	133%	117%	114%	112%	127%	120%	110%	107%	106%	67.6%	88.6%	113%	89.8%	90.5%	116%	95.1%	99.7%	101%	107%	97.6%	48.6%
CC(=O)N(O)CCCCCNC(=O)CCC(=O)N(O)CCCCCNC(=O)CCC(=O)N(O)CCCCCN.C[S+](=O)([O-])O	74.3%	86.8%	77.7%	26.2%	25.3%	18.8%	22.5%	18.2%	23.9%	23.2%	23.2%	96.8%	54.4%	30.4%	18.5%	20.6%	20.9%	20.6%	14.4%	18.5%	15.9%	16.3%	81%	82.9%	94.4%	30.2%	25.4%	19.3%	18.7%	20.2%	19.3%	23.6%	23.7%
COc1cc(C[C@@H](CO)[C@H](CO)Cc2ccc(O)c(OC)c2)ccc1O	84%	89.3%	92.1%	95%	104%	109%	114%	107%	111%	89.1%	105%	91.8%	85.1%	88.4%	81.8%	91.7%	105%	106%	104%	105%	110%	93.3%	85.7%	92.7%	98.1%	99.7%	113%	102%	105%	112%	108%	108%	110%
COc1cccc(OC)c1-c1cc(C(=O)NC2(C(=O)O)C3CC4CC(C3)CC2C4)nn1-c1ccnc2cc(Cl)ccc12 (stereo not drawn)	107%	94.1%	96.4%	109%	115%	112%	117%	102%	104%	97.8%	112%	89.7%	98%	106%	92.4%	107%	98.4%	104%	110%	117%	92.6%	79.2%	95.2%	118%	109%	126%	96.3%	119%	117%	102%	116%	118%	113%
CN1CCN(CC1)C2=CC3=C([NH]C(=N3)C/4=C(\N)C5=C(F)C=CC=C5NC4=O)C=C2	39.9%	48.9%	44.5%	45.4%	31%	46.1%	36.6%	26.5%	21.4%	17.3%	5.83%	52.6%	65.8%	50%	54.7%	37.4%	44.5%	36.2%	25.6%	19.5%	9.89%	8.79%	40.7%	58.3%	43.3%	41.6%	31.2%	34.6%	32.7%	27.2%	19.8%	10.5%	5.75%
Nc1ncnc2nc(-c3ccc(N4CCOCC4)nc3)cc(-c3cccc(Br)c3)c12	109%	107%	115%	118%	114%	122%	117%	115%	109%	110%	96.5%	93.2%	124%	77.9%	111%	114%	110%	104%	105%	114%	106%	83%	125%	124%	102%	133%	125%	127%	132%	126%	133%	123%	93%
